Laboratory results published in patent US6440999B1, “Intimal thickening inhibitory agent” (Chugai Seiyaku Kabushiki Kaisha, priority 1995, dated 2002).

Test system: A7r5 cells derived from the aorta of a rat
Assay: Inhibition of serum-stimulated proliferation of vascular smooth muscle cells, acid phosphatase activity
Assay type: cell-based
Conditions: 48 hours after 2% FBS stimulation, n = 3, mean ± SD; for Acid Phosphatase Activity Absorbance (OD405): control 0.867 ± 0.089
Experimental: In order to assess the inhibitory effect of the compounds of the present invention on serum-stimulated proliferation of vascular smooth muscle cells in vitro, the compounds of Examples 1, 4, 20, 22, 27, 31, 36, 50, 52, and 58 were tested using A7r5 cells derived from the aorta of a rat (ATCC-CRL-1444).
Using DMEM medium containing 10% FBS, the cells were placed on 96-well microtiter plates with 5×10^3 cells/0.2 ml/ well and then incubated. The medium was exchanged for 2% FBS-containing DMEM medium on the third day and then for 0.2% FBS-containing DMEM medium on the fourth day from the start of the incubation. After 24-hour incubation in the 0.2% FBS-containing DMEM medium, the test compound was added. Each of the test compounds were added to the wells in the form of a solution or suspension in ethanol in an amount of 1 μl/well to final compound concentrations indicated in Table 3 below and the resultant ethanol concentration of 0.5% in each well. After additional 24-hour incubation, the medium was removed, and 0.2 ml of DMEM medium and the test compound were added thereto again, and the cells were stimulated by serum (2% FBS). Forty-eight hours after the stimulation, the acid phosphatase activity in the wells was measured by means of a kit (Abacus Cell Proliferation Kit, available from Clontech Lab. Inc. CA, U.S.A.) and evaluated as an indication of cell proliferation.

What does the source list for `CCCCCC1(CCCCC)Cc2c(cc(C(C)(C)C)c(O)c2C(C)(C)C)O1` [Example 36, 4,6-Di-t-butyl-2,2-di-n-pentyl-5-hydroxy-2,3-dihydrobenzofuran]?
Acid Phosphatase Activity Absorbance (OD405) (10 μM): 0.733 ± 0.060; Acid Phosphatase Activity Absorbance (OD405) (100 μM): 0.539 ± 0.055; activity at 10 µM (Rattus norvegicus, A7R5, 10 μM, control 100 ± 10): 84 ± 7%; activity at 100 µM (Rattus norvegicus, A7R5, 100 μM, control 100 ± 10): 62 ± 6%
